Results taken from patent US20110124690A1, “COMPOSITIONS AND METHODS FOR TREATING CANCER OR A NEUROTROPHIC DISORDER” (priority 2007, published 2011).
Where two headings read alike, the source gives them in different places.

Experiments:
[1] = system: CCRF-CEM human T-cell acute lymphoblastic leukemia cells; test: XTT microculture cytotoxicity assay, CCRF-CEM cells; assay type: cell-based
Protocol: (§2) CCRF-CEM human T-cell acute lymphoblastic leukemia cells and the corresponding vinblastine-resistant cells (CCRF-CEM/VBL100) were cultured at an initial density of 5×10^4 cells per milliliter. The cultured cells were then maintained in a 5% CO2-humidified atmosphere at 37° C. in RPMI medium 1640 (GIBCO/BRL) containing penicillin (100 units/mL), streptomycin (100 μg/mL, GIBCO/BRL), and 10% heat-inactivated fetal bovine serum. The cytotoxicity of each Panaxytriol Compound was measured using the 2,3-bis(2-methoxy-4-nitro-5-sulfophenyl)-5-[(phenylamino)carbonyl]-2H-tetrazolium hydroxide (XTT) microculture method as described in Scudiero et al., Cancer Res., 48:4827 (1988).

[2] = system: human mammary carcinoma xenograft MX-1; test: Therapeutic effect in nude mice bearing MX-1 xenograft; assay type: in vivo; conditions: slow i.v. infusion; for Tumor growth at elevated dosage levels: elevated dosages
Protocol: (§1) Nude mice having human mammary carcinoma xenograft MX-1 were treated with panaxytriol or Compound (A) at various dosages through the slow i.v. infusion protocol by Chou et al. (Chou, T. C., et al, Proc. Natl. Acad. Sci. U.S.A. 95: 15798 (1998)).

[3] = Body weight of treated nude mice bearing MX-1 xenograft; assay type: in vivo; conditions: highest dosage levels (100 mg/kg)
Protocol: as §1

[4] = system: CCRF-CEM/VBL (vinblastine-resistant) cells; test: XTT microculture cytotoxicity assay, vinblastine-resistant CCRF-CEM/VBL cells; assay type: cell-based, human; conditions: for IC50: Homo sapiens, CCRF-CEM
Protocol: as §2

[5] = system: CCRF-CEM/Taxol cells; test: XTT microculture cytotoxicity assay, Taxol-resistant CCRF-CEM/Taxol cells; assay type: cell-based, human; conditions: Table 3A
Protocol: as §2

[6] = 72 h, Table 3, XTT assay, 72-hour inhibition, read-out: IC50 (μM) CCRF-CEM
[7] = 72 h, Table 3, XTT assay, 72-hour inhibition, vinblastine-resistant cells

## C=C[C@H](C#CC#CC[C@H]1OC(C)(C)O[C@@H]1CCCCCCC)OC(=O)/C=C/c1ccccc1 [Compound (E)]
[1]; Table 3B, read-out: IC50 (in μM) for human leukemic lymphoblastic leukemia cells CCRF-CEM
  IC50: 6.51 µM

## C=C[C@@H](O)C#CC#CC[C@@H](O)[C@H](O)CCCCCCC [panaxytriol]
[2]; 30 mg/kg, FIG. 1
  Reduction in tumor mass: no significant reduction in tumor mass
  Tumor growth: some suppression of tumor growth
[2]
  Tumor growth at elevated dosage levels: improved inhibitory effects
[3]
  Body weight: no body weight decrease
[4]; Table 3
  Fold resistance (IC50 CCRF-CEM/VBL vs CCRF-CEM), in parentheses: 1.20 x

## C=C[C@H](O)C#CC#CC[C@H]1OC(C)(C)O[C@@H]1CCCCCCC [Compound (D)]
[4]; Table 3A
  Fold resistance, CCRF-CEM/VBL vs parent CCRF-CEM (fold increase in IC50): [1.98-fold
[5]
  Fold resistance, CCRF-CEM/Taxol vs parent CCRF-CEM (fold increase in IC50): [2.17-fold

## C=CC(=O)C#CC#CC[C@H]1OC(C)(C)O[C@@H]1CCCCCCC [Compound C]
[1]; [6]
  IC50: 3.23 ± 0.78 µM
[4]; [7]
  IC50: 3.84 ± 0.08 µM

## C=CC(=O)C#CC#CC[C@@H](O)[C@H](O)CCCCCCC [Compound B]
[4]; Table 3
  Fold resistance (IC50 CCRF-CEM/VBL vs CCRF-CEM), in parentheses: 1.40 x

## C=C[C@@H](O)C#CC#CC[C@H]1OC(C)(C)O[C@@H]1CCCCCCC [Compound A]
[2]
  Tumor growth at elevated dosage levels: enhanced tumor-growth suppression
[2]; including elevated dosages
  Reduction in tumor mass: did not lead to a reduction in the tumor mass
[2]; levels as low as 10 mg/kg, FIG. 2
  Tumor growth: inhibiting tumor growth
[1]; [6]
  IC50: 1.98 ± 0.2 µM
[1]; Table 3A, compound stored in DMSO at below approximately −20° C. for 4 years and 4 months, read-out: IC50 (μM) CCRF-CEM
  IC50: 6.15 µM
[4]; [7]
  IC50: 2.41 ± 0.05 µM
[4]; Table 3A, compound stored in DMSO at below approximately −20° C. for 4 years and 4 months
  IC50: 6.82 µM
[4]; Table 3A
  Fold resistance, CCRF-CEM/VBL vs parent CCRF-CEM (fold increase in IC50): [1.4-fold
[5]; Homo sapiens, CCRF-CEM, compound stored in DMSO at below approximately −20° C. for 4 years and 4 months
  IC50: 17.2 µM

## CC[C@]1(O)C[C@@H]2CN(CCc3c([nH]c4ccccc34)[C@@](C(=O)OC)(c3cc4c(cc3OC)N(C)[C@H]3[C@@](O)(C(=O)OC)[C@H](OC(C)=O)[C@]5(CC)C=CCN6CC[C@]43[C@@H]65)C2)C1 [Vinblastine, reference compound]
[1]; [6]
  IC50: 0.002 µM
[4]; [7]
  IC50: 0.8 µM
